For the first assay, the target named is T1, HIV protease (Human immunodeficiency virus type 1 group M subtype B, UniProt P04585).
T1 construct: A third viral enzyme known as protease then cleaves the polyproteins
The experiment in a line: Enzymatic Assay for Determining the Inhibition Constant (Ki) of Synthetic Compounds Targeting the HIV Protease (fluorometric FRET assay). The class given is biochemical.
Conditions: not given
In short, it runs like this: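 Fluorometric FRET assay following protease cleavage of an EDANS/DABCYL-labelled substrate. Initial velocities without (Vo) and with inhibitor (Vi) measured; Ki derived from the Henderson equation using inhibitor and substrate concentrations and Km.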
Turning to `Cc1ccc(S(=O)(=O)N[C@@H](COCc2ccccc2)C(=O)NCCCC[C@@H](C(=O)O)N(CC(C)C)S(=O)(=O)c2ccc(C)cc2)cc1` [Example 40, Nα-Isobutyl-Nα-(4-methylbenzenesulfonyl)-Nε-[N′α-(4-methylbenzenesulfonyl)-O-benzyl-L-seryl]-L-lysine], the Ki was determined as 8 nM.

As for `Cc1ccc(S(=O)(=O)N[C@@H](Cc2ccccc2)C(=O)NCCCC[C@@H](CO)N(CC(C)C)S(=O)(=O)c2ccc(C)cc2)cc1` [Example 96, (2S,2′S) 2-N-Isobutyl-2-N-(4-methylbenzenesulfonyl)-6-N-[N′α-(4-methylbenzenesulfonyl)-S-phenylalanyl]-2,6-diaminohexanol], the affinity corresponds to a Ki of 16 nM.

Consider `CC(C)CN([C@H](CO)CCCCNC(=O)[C@H](Cc1c[nH]c2ccccc12)NC(=O)CC(C)(C)C)S(=O)(=O)c1ccc(N)cc1` [Example 185, (2S,2′S) 2-N-(4-Aminobenzenesulfonyl)-2-N-isobutyl-6-N-(N′α-tert-butylacetyl-S-tryptophanyl)-2,6-diaminohexanol], for which the Ki came to 3.1 nM.

The molecule `Cc1ccc(S(=O)(=O)N(CC(C)C)[C@H](CO)CCCCNC(=O)CN(Cc2ccccc2)c2ccccc2)cc1` [Example 156, (2S) 2-N-Isobutyl-2-N-(4-methylbenzenesulfonyl)-6-N-(N′α-benzyl-N′α-phenylglycyl)-2,6-diaminohexanol] gave a Ki of 7.6 nM.

The molecule `CC(C)CN([C@@H](CCCCNC(=O)[C@H](Cc1ccccc1)NS(=O)(=O)c1cccs1)C(=O)O)S(=O)(=O)c1ccc(N)cc1` [Example 46, Nα-(4-Aminobenzenesulfonyl)-Nα-isobutyl-Nε-[N′α-(2-thiophenesulfonyl)-L-phenylalanyl]-L-lysine] registered a Ki of 0.477 nM.

Turning to `Cc1ccc(S(=O)(=O)N(CC(C)C)[C@@H](CCCCNC(=O)[C@H](CC(N)=O)NC(=O)c2ccccc2)C(=O)O)cc1` [Example 63, Nα-Isobutyl-Nα-(4-methylbenzenesulfonyl)-Nε-(N′α-benzoyl-L-asparagyl)-L-lysine], the Ki is 193 nM.

Molecule `Cc1ccc(S(=O)(=O)N(CC(C)C)[C@@H](CCCCNC(=O)[C@H](CC2CCCCC2)NC(=O)OCC2c3ccccc3-c3ccccc32)C(=O)O)cc1` [Example 37, Nα-Isobutyl-Nα-(4-methylbenzenesulfonyl)-Nε-[N′α-(9-fluorenylmethoxycarbonyl)-L-cyclohexylalanyl]-L-lysine] gave a Ki of 28 nM.

`Cc1ccc(S(=O)(=O)N(CC(C)C)[C@@H](CCCCNC(=O)[C@H](Cc2ccccc2)NC(=O)C(C)(C)C)C(=O)O)cc1` [Example 52, Nα-Isobutyl-Nα-(4-methylbenzenesulfonyl)-Nε-(N′α-pivaloyl-L-phenylalanyl)-L-lysine] registered a Ki of 0.545 nM.

Molecule `Cc1ccc(S(=O)(=O)N(CC(C)C)[C@H](CO)CCCCNC(=O)CN(Cc2ccccc2)C(=O)c2ccccc2)cc1` [Example 158, (2S) 2-N-Isobutyl-2-N-(4-methylbenzenesulfonyl)-6-N-(N′α-benzoyl-N′α-benzylglycyl)-2,6-diaminohexanol] displayed a Ki of 95 nM.

On to `COc1ccc(CN(CC(=O)NCCCC[C@@H](CO)N(CC(C)C)S(=O)(=O)c2ccc(N)cc2)c2ccccc2)cc1` [Example 176, (2S) 2-N-(4-Aminobenzenesulfonyl)-2-N-isobutyl-6-N-[N′α-(4-methoxybenzyl)-N′α-phenylglycyl]-2,6-diaminohexanol], for which the Ki worked out at 2.4 nM.

`Cc1ccc(S(=O)(=O)N(CC(C)C)[C@H](CO)CCCCNC(=O)[C@@H]2Cc3c([nH]c4ccccc34)CN2C(=O)OC(C)(C)C)cc1` [Example 141, (2S,2′S) 2-N-Isobutyl-2-N-(4-methylbenzenesulfonyl)-6-N-(N′α-tert-butoxycarbonyl-S-1,2,3,4-tetrahydronorharman-3-carbonyl)-2,6-diaminohexanol] displayed a Ki of 38 nM.

`COc1ccc(S(=O)(=O)N(CC2CCCC2)[C@H](CO)CCCCNC(=O)[C@H](Cc2c[nH]c3ccccc23)NC(=O)OC(C)(C)C)cc1` [Example 153, (2S,2′S) 2-N-Cyclopentylmethyl-2-N-(4-methoxybenzenesulfonyl)-6-N-(N′α-tert-butoxycarbonyl-S-tryptophanyl)-2,6-diaminohexanol] gave a Ki of 24 nM.

`Cc1ccc(S(=O)(=O)N[C@@H](Cc2ccccc2)C(=O)NCCCC[C@@H](C(=O)O)N(CC(C)C)S(=O)(=O)c2ccc(N)cc2)cc1` [Example 201, Nα-(4-Aminobenzenesulfonyl)-Nα-isobutyl-Nε-[N′α-(4-methylbenzenesulfonyl)-L-phenylalanyl]-L-lysine] displayed a Ki of 4.1 nM.

For `Cc1ccc(S(=O)(=O)N(CC(C)C)[C@@H](CCCCNC(=O)[C@H](Cc2ccccc2)NC(=O)c2ccccc2)C(=O)O)cc1` [Example 50, Nα-Isobutyl-Nα-(4-methylbenzenesulfonyl)-Nε-(N′α-benzoyl-L-phenylalanyl)-L-lysine], the Ki was 2 nM.

On to `Cc1ccc(S(=O)(=O)N(CC(C)C)[C@@H](CCCCNC(=O)[C@H](Cc2ccccc2)NC(=O)NCCO)C(=O)O)cc1` [Example 199, Nα-Isobutyl-Nα-(4-methylbenzenesulfonyl)-Nε-(N′α-ethanolaminocarbonyl-L-phenylalanyl)-L-lysine], for which affinity was put at a Ki of 2.2 nM.

In the case of `Cc1ccc(S(=O)(=O)N[C@@H](Cc2c[nH]c3ccccc23)C(=O)NCCCC[C@@H](CO)N(CC(C)C)S(=O)(=O)c2ccc(C)cc2)cc1` [Example 97, (2S,2′S) 2-N-Isobutyl-2-N-(4-methylbenzenesulfonyl)-6-N-[N′α-(4-methylbenzenesulfonyl)-S-tryptophanyl]-2,6-diaminohexanol], the Ki is 3.6 nM.

For `Cc1ccc(CSC[C@H](N)C(=O)NCCCC[C@@H](C(=O)O)N(CC(C)C)S(=O)(=O)c2ccc(C)cc2)cc1` [Example 90, Nα-Isobutyl-Nα-(4-methylbenzenesulfonyl)-Nε-[S-(4-methylbenzyl)-L-cysteinyl]-L-lysine], the Ki was found to be 29 nM.

The molecule `Cc1ccc(S(=O)(=O)N(CC(C)C)[C@@H](CCCCNC(=O)[C@H](Cc2c[nH]c3ccccc23)NS(=O)(=O)c2cccs2)C(=O)O)cc1` [Example 53, Nα-Isobutyl-Nα-(4-methylbenzenesulfonyl)-Nε-[N′α-(2-thiophenesulfonyl)-L-tryptophanyl]-L-lysine] showed a Ki of 13 nM.

Still in this assay, the particulars now being: Anti-protease activity of Ne-amino acid substituted L-lysine derivatives and analogs of formula I; read-out: Ki.
In the case of `Cc1ccc(S(=O)(=O)N(CC(=O)NCCCC[C@@H](C(=O)O)N(CC(C)C)S(=O)(=O)c2ccc(C)cc2)CC(C)C)cc1` [Example 55, Nα-Isobutyl-Nα-(4-methylbenzenesulfonyl)-Nε-[N′α-isobutyl-N′α-(4-methylbenzenesulfonyl)-glycyl]-L-lysine], the Ki stood at 14 nM.

Staying with this assay, now noted: Table 1, compounds of formula I; read-out: Ki (anti-protease activity).
With `Cc1ccc(S(=O)(=O)N(CC(C)C)[C@H](CO)CCCCNC(=O)[C@H](Cc2c[nH]c3ccccc23)NS(=O)(=O)c2ccccc2)cc1` [Example 128, (2S,2′S) 2-N-Isobutyl-2-N-(4-methylbenzenesuilfonyl)-6-N-(N′α-benzenesulfonyi-S-tryptophanyl)-2,6-diaminohexanol], the Ki is 0.95 nM.

As to `Cc1ccc(S(=O)(=O)N(CC(C)C)[C@H](CO)CCCCNC(=O)[C@H](Cc2ccncc2)NC(=O)OC(C)(C)C)cc1` [Example 136, (2S,2′S) 2-N-Isobutyl-2-N-(4-methylbenzenesulfonyl)-6-N-(N′α-tert-butoxycarbonyl-S-4-pyridylalanyl)-2,6-diaminohexanol], the Ki was determined as 110 nM.

Source of the values: patent US6610689B2, “HIV protease inhibitors based on amino acid derivatives” (priority 2001, dated 2003).
